Experimental data from the NIST ThermoML archive (doi:10.1016/j.tca.2007.05.009).
Where “and” joins values, the source holds several entries; their conditions need not be identical. Identical values can stand only once.

Conditions: Crystal

CC/N=C(/N)S [ethylthiourea]
Conditions	vapor or sublimation pressure
356.5 K, Calculated from knudsen effusion weight loss	0.000282 kPa
357 K, Calculated from knudsen effusion weight loss	0.000309 kPa
360 K, Torsion effusion method	0.000331 kPa
360.5 K, Calculated from knudsen effusion weight loss	0.000417 kPa
361 K, Torsion effusion method	0.000437 kPa
362 K, Calculated from knudsen effusion weight loss	0.00049 kPa
363 K, Torsion effusion method	0.000447 kPa
364 K, Torsion effusion method	0.00055 kPa
365 K, Torsion effusion method	0.000661 kPa
366 K, Torsion effusion method	0.000631 kPa
366.5 K, Torsion effusion method	0.000813 kPa
367 K, Torsion effusion method	0.000741 kPa
367.5 K, Calculated from knudsen effusion weight loss	0.000912 kPa
368 K, Torsion effusion method	0.000912 kPa and 0.000646 kPa
368.5 K, Torsion effusion method	0.000794 kPa
369 K, Torsion effusion method	0.000891 kPa
369.5 K, Torsion effusion method	0.001175 kPa
370 K, Torsion effusion method	0.001047 kPa and 0.000871 kPa
370.5 K, Torsion effusion method	0.001175 kPa
371 K, Torsion effusion method	0.001047 kPa and 0.001288 kPa and 0.001096 kPa
372 K, Torsion effusion method	0.000977 kPa
373 K, Torsion effusion method	0.001288 kPa
374 K, Torsion effusion method	0.00138 kPa and 0.001738 kPa
374.5 K, Torsion effusion method	0.001349 kPa
375 K, Torsion effusion method	0.001862 kPa [middle of 4 runs]
376 K, Torsion effusion method	0.001778 kPa [middle of 4 runs]
377 K, Torsion effusion method	0.001905 kPa and 0.001698 kPa
378 K, Torsion effusion method	0.002239 kPa [middle of 4 runs]
379 K, Torsion effusion method	0.002692 kPa and 0.002884 kPa
379.5 K, Torsion effusion method	0.00263 kPa
380 K, Torsion effusion method	0.002951 kPa and 0.002188 kPa
380.5 K, Torsion effusion method	0.002291 kPa
